The values below come from patent US7256252B1, “Methods for detecting cell apoptosis” (Cephalon, Inc., priority 1996, dated 2007).

The subject of one series is Hippocampal neurons. The class given is cell-based. The note with it: hippocampal neurons in primary culture, 3-nitropropionic acid applied. The source says: Similar results were obtained with other cells. Hippocampal neurons grown in primary culture were stimulated to die by application of the neurotoxic metabolic poison 3-nitropropionic acid.
A further series relates to HL60 cells. Put plainly: Etoposide-triggered apoptotic proteolysis in HL60 cells (immunoblot). The class given is cell-based, human. Conditions: 17 micromolar etoposide, 2 or 4 hours. On the procedure:
HL60 cells (obtained from the American Type Culture Collection, Rockville, Md.) were cultured using published techniques (Collins et al., Nature, 270:347-349 (1977), incorporated herein by reference). Cultures of cells were incubated with either 17 micromolar etoposide (from a 1000× stock solution made in dimethylsulfoxide) to trigger apoptosis or a vehicle. After either 2 or 4 hours, cells were lysed in ice cold 25 millimolar (mM) HEPES (pH 7.5), 5 mM MgCl2, 0.1% Triton X-100 and a cocktail of protease inhibitors (1 mM EGTA, 10 micrograms per ml of aprotinin, 10 micrograms per ml of leupeptin, 7 micrograms per ml of pepstatin A, 1 mM phenylmethylsulfonylfluoride (PMSF). The resulting cell lysates were subjected to SDS-polyacrylamide gel electrophoresis on 4-20% Tris-glycine gradient gels, and the separated proteins transferred to nitrocellulose membranes by Western blotting. The blots were immunostained with Ab127 ( 1/5,000) followed by incubation with alkaline phosphatase conjugated goat anti-rabbit IgG (Bio-Rad, Burlingame, Calif.) and visualized as described previously (Roberts-Lewis et al., J. Neurosci. 14:3934-3944 (1994), incorporated herein by reference).
Background: A western blot detects proteins with antibodies after separation by electrophoresis.

Each structure is given as a SMILES string.

As to `O=C(O)CC[N+](=O)[O-]` [3-nitropropionic acid], the “apoptotic neurons by Hoechst 33258 nuclear stain” value with Hippocampal neurons is given as “presence of apoptotic neurons”.
For `COc1cc([C@@H]2c3cc4c(cc3[C@@H](O[C@@H]3O[C@@H]5CO[C@@H](C)O[C@H]5[C@H](O)[C@H]3O)[C@H]3COC(=O)[C@H]23)OCO4)cc(OC)c1O` [etoposide], the “level of about 30 kDa immunoreactive polypeptide” value in the series with HL60 cells is “increased with increasing time of cell exposure”.
